Laboratory results from ChEMBL document CHEMBL1201862, “PubChem BioAssay data set” (2004).
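Assay format: 96-well plates, 48-hour exposure. GI50: concentration for 50% inhibition of growth.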 Active and inactive are the calls of the source. No stated cut-off is given here; in the data, active = GI50 up to about 1.1 µM and inactive = higher.

Experiments:
Assay in all cases: NCI anticancer screen, dose series, 48 h
[1] = tested on: A498
[2] = tested on: NCI-H23
[3] = tested on: SK-MEL-5
[4] = tested on: SNB-19
[5] = tested on: CAKI-1
[6] = tested on: A549
[7] = tested on: SF-295
[8] = tested on: SR
[9] = tested on: SK-MEL-2
[10] = tested on: U-251
[11] = tested on: SW-620
[12] = tested on: HCC 2998
[13] = tested on: UACC-257
[14] = tested on: CCRF-CEM
[15] = tested on: HOP-62
[16] = tested on: XF498
[17] = tested on: M19-MEL
[18] = tested on: LOX IMVI
[19] = tested on: IGROV-1
[20] = tested on: OVCAR-3
[21] = tested on: K562
[22] = tested on: SNB-75
[23] = tested on: NCI/ADR-RES
[24] = tested on: HOP-92
[25] = tested on: UO-31
[26] = tested on: Malme-3M
[27] = tested on: UACC-62
[28] = tested on: HCT-15
[29] = tested on: DMS-114
[30] = tested on: SK-MEL-28
[31] = tested on: HT-29
[32] = tested on: SF-268
[33] = tested on: SK-OV-3
[34] = tested on: EKVX
[35] = tested on: KM-20L2
[36] = tested on: DU-145
[37] = tested on: HCT-116
[38] = tested on: 786-0
[39] = tested on: RPMI-8226
[40] = tested on: KM12
[41] = tested on: M14
[42] = tested on: SNB-78
[43] = tested on: SF-539
[44] = tested on: COLO 205
[45] = tested on: T47D
[46] = tested on: DLD-1
[47] = tested on: PC-3
[48] = tested on: HL-60
[49] = tested on: MCF7
[50] = tested on: NCI-H226
[51] = tested on: NCI-H460
[52] = tested on: MDA-MB-435
[53] = tested on: MDA-N
[54] = tested on: MDA-MB-231
[55] = tested on: Hs-578T
[56] = tested on: OVCAR-8
[57] = tested on: OVCAR-4
[58] = tested on: NCI-H522
[59] = tested on: RXF 393
[60] = tested on: ACHN
[61] = tested on: OVCAR-5
[62] = tested on: MOLT-4
[63] = tested on: SN12C
[64] = tested on: BT-549
[65] = tested on: TK-10
[66] = tested on: HOP-18

Measured: GI50

Nc1ncn([C@H]2C[C@H](O)[C@@H](CO)O2)c(=O)n1 [DECITABINE]
inactive: [1] 135 µM | [2] 118 µM | [3] 74.6 µM | [4] 138 µM | [5] 219 µM | [6] 21.4 µM | [7] 102 µM | [8] 2.67 µM | [9] 38.1 µM | [10] 102 µM | [11] 29 µM | [12] 105 µM | [13] 34.9 µM | [14] 4.59 µM | [15] 111 µM | [16] 25.5 µM | [17] 5.86 µM | [18] 99.5 µM | [19] 102 µM | [20] 76.6 µM | [21] 18.7 µM | [22] 82.8 µM | [23] > 347 µM | [24] 175 µM | [25] 298 µM | [26] 127 µM | [27] 83.8 µM | [29] 371 µM | [30] 97.3 µM | [31] 51.3 µM | [32] 119 µM | [33] 76.2 µM | [34] 104 µM | [35] > 375 µM | [36] 8.79 µM | [37] 48.9 µM | [38] 9.42 µM | [39] 54.7 µM | [40] 72.6 µM | [41] 9.59 µM | [42] 373 µM | [43] 92 µM | [44] 37.7 µM | [45] 10.4 µM | [46] 3.09 µM | [47] 9.57 µM | [48] > 24.8 µM | [49] 74.8 µM | [50] 68.7 µM | [51] 6.59 µM | [52] 2.49 µM | [53] 1.46 µM | [54] 17.8 µM | [55] 3.32 µM | [56] 16.9 µM | [57] 104 µM | [58] 36.7 µM | [59] 136 µM | [60] 21.5 µM | [61] 106 µM | [62] 11.6 µM | [63] 83.8 µM | [64] 13.6 µM | [65] 46.8 µM | [66] > 99.1 µM
2.77 µM: [28]
